Key:
[1] = target: sLeX; assay: BIAcore measurement of binding capacity of peptides on sLeX-BSA fixed CM5 chip
Procedure: To measure the binding capacity of peptides, BIAcore was used. CM5 made by gold and protruded with CM-dextran layer and carboxylic acid group was used as a chip. BSA (Oxford Glyco Science, USA) binding with sLeX was used as a ligand for fixing.
At first, chip surface was stabilized with 100 mM HEPES buffer solution (pH 8.0), and activated with the mixture of 0.4 M EDC (1-ethyl-3-[3′-dimethylaminopropyl]carbodiimide) and 0.1 M NHS (N-hydroxysuccunimide). And then, sodium acetate buffer(10 mM, pH 4.0) containing 0.05 mg/ml of sLeX-BSA or BSA was injected and fixed onto the surface of CM5 chip until the value of RU reached to 6,000. Chip surface remaining active state was substituted with 1.0 M ethanolamine. Target molecules were bound to CM5 chip, and binding buffer (0.01 M HEPES, […], 3 mM EDTA, 0.005% polysorbate 20, pH 7.4) was flowed on the chip surface for equilibration, and finally, bindng capacity was determined by flowing binding buffer containing peptides according to the concentrations. At that time, peptides were combined with their targets with different speed and slope according to the affinity of peptides and target molecules and the affinity between target molecules was measured from the each result. […]

[2] = tested on: sLeX; assay: Peptide phage library biopanning against sLeX-BSA; format: binding; conditions: after three rounds of biopanning
Procedure: As described above, in order to obtain molecules having strong binding capacity to carbohydrates using repetitive structure of peptide, sialyl Lewis X (sLeX) existing in tumor cells or inflammation response cells was selected as a target, and a peptide binding to the sLeX well was selected by using peptide phage library and biopanning method. Particularly, sLeX-BSA(Oxford Glycoscience) was added into 0.1 M NaHCO3(pH 8.6) buffer solution until the concentration reached to 100 μg/ml. 150 μl of the above solution(sLeX-BSA 0.1 M NaHCO3) was loaded into one well of 96-well plate, and 150 μl of BSA 0.1 M NaHCO3(pH 8.6) was also loaded into the other well. The well plate was shaken to soak completely, and left for overnight at 4° C. The solution in 96-well plate was washed, followed by adding 200 μl of blocking solution(0.1 M ethanol amine, 0.1 M NaHCO3, pH 8.6) into the wells, and then the plate was left for overnight at 4° C. After blocking solution was removed from the 96-well plate, the plate was washed with 200 μl of TBS-T(50 mM Tris-HCl, pH 7.5, 150 mM NaCl, 0.1% [v/v] Tween-20). […]
180 μl of extraction solution was loaded into 3 ml of ER2537 culture solution(OD600=0.2–0.3) and cultured for 4.5 hours at 37° C. while shaking with 250 rpm. […] The amplified phage obtained above was diluted with various concentrations, and the proper concentration was calculated as follows. […]

Substance | Kd ([1]; BIAcore, sLeX-BSA fixed on CM5 chip, read-out: Kp against sLeX) [mM] | strength of binding converted into the height of sensorgram ([1]; peptide flowed at 62.5 μM, sLeX-BSA fixed chip, FIG. 1) [RU] | binding capacity to sLeX relative to other selected peptides [2]
AHWIPRYSSPAT [monomer] | 25.4 | 16 | –
peptide represented by the SEQ. ID NO.1: peptide composed of 12 amino acids selected by phage display for binding to sLeX (AHWIPRYSSPAT; synthetic peptide which have a strong affinity to carbohydrate) | – | – | better than that of the other peptides

— US7101841B2, “Carbohydrate-specific peptides which have a strong affinity and preparations method thereof” (Korea Institute of Science and Technology, priority 2001, dated 2006)
